Experimental data: US7189850B2, “Triaza-spiropiperidine derivatives” (Hoffmann-La Roche Inc., priority 2003, dated 2007)

system: not given; assay: not given; conditions: not given

With `O=C1NCN(c2ccccc2)C12CCN([C@H]1CCCC[C@H]1c1ccc(F)cc1)CC2` (racemic) [Example 10, (rac,cis)-8-[2-(4-Fluoro-phenyl)-cyclohexyl]-1-phenyl-1,3,8-triaza-spiro[4.5]decan-4-one] as the compound, how does the melting point read?
The melting point was 198 to 200 °C.

For `O=C1NCN(c2ccccc2)C12CCN([C@H]1CCCC[C@H]1c1ccc(Cl)cc1)CC2` (racemic) [Example 11, (rac,cis)-8-[2-(4-Chloro-phenyl)-cyclohexyl]-1-phenyl-1,3,8-triaza-spiro[4.5]decan-4-one], which melting point is on record?
The melting point was 204 to 206 °C.

For `O=C1NCN(c2ccccc2)C12CCN(C1CCCCC1c1ccccc1)CC2` (racemic) [Example 1, (rac,cis)-1-Phenyl-8-(2-phenyl-cyclohexyl)-1,3,8-triaza-spiro[4.5]decan-4-one], which melting point is on record?
The melting point was 205 to 208 °C.

Which melting point does the source give for `O=C1NCN(c2ccccc2)C12CCN(C1CCCCC1c1ccccc1)CC2` (racemic) [Example 68, (rac,trans)-1-Phenyl-8-(2-phenyl-cyclohexyl)-1,3,8-triaza-spiro[4.5]decan-4-one] here?
The melting point was 254 to 256 °C.

Which melting point does the source give for `Cc1ccc(C2CCCCC2N2CCC3(CC2)C(=O)NCN3c2ccccc2)cc1` (racemic) [Example 8, (rac,cis)-1-Phenyl-8-(2-p-tolyl-cyclohexyl)-1,3,8-triaza-spiro[4.5]decan-4-one] here?
The melting point was 174 to 176 °C.

Which melting point does the source give for `O=C1NCN(c2ccccc2)C12CCN([C@H]1CCCC[C@H]1c1ccc(Cl)c(Cl)c1)CC2` (racemic) [Example 13, (rac,cis)-8-[2-(3,4-Dichloro-phenyl)-cyclohexyl]-1-phenyl-1,3,8-triaza-spiro[4.5]decan-4-one] here?
The melting point was 198 to 200 °C.

molecular target: T1, mGlyT-1b (Mus musculus, UniProt P28571); assay: Glycine uptake inhibition assay (mGlyT-1b); assay type: cell-based; conditions: not given
T1 sequence (P28571 1-651 isoform P28571-2): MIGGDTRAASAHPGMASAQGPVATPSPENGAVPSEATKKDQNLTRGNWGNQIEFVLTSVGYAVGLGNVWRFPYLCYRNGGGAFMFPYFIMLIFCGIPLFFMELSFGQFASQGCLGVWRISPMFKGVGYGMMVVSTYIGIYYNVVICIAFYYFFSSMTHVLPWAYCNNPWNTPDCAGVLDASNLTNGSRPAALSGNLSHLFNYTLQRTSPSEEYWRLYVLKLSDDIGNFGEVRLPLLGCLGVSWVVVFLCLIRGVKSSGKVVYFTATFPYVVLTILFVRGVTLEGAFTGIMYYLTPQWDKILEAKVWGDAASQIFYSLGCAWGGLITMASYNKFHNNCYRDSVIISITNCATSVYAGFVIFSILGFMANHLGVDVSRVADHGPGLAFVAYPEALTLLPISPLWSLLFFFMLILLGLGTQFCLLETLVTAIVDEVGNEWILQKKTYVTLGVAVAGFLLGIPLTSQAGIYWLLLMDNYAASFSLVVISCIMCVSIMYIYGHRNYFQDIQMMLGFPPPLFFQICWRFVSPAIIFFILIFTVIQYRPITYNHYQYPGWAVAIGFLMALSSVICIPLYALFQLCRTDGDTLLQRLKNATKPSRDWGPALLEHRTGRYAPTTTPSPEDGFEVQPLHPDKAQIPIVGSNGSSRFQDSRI

For `O=C1NCN(c2ccccc2)C12CCN(C1CCCCC1(O)c1ccccc1)CC2` (racemic) [Example 74, (rac,cis)-8-(2-Hydroxy-2-phenyl-cyclohexyl)-1-phenyl-1,3,8-triaza-spiro[4.5]decan-4-one], which IC50 is on record?
The IC50 was 44 nM.

For `O=C1NCN(c2ccc(Cl)cc2)C12CCN(C1CCCCC1(O)c1ccc(Cl)cc1)CC2` (racemic) [Example 90, (rac,cis)-1-(4-Chloro-phenyl)-8-[2-(4-chloro-phenyl)-2-hydroxy-cyclohexyl]-1,3,8-triaza-spiro[4.5]decan-4-one], which IC50 is on record?
The IC50 was 43 nM.

For `O=C1NCN(c2ccccc2)C12CCN(C1CCCCC1(O)c1ccccc1)CC2` (racemic) [Example 101, (rac,trans)-8-(2-Hydroxy-2-phenyl-cyclohexyl)-1-phenyl-1,3,8-triaza-spiro[4.5]decan-4-one], which IC50 is on record?
The IC50 was 56 nM.

Which IC50 does the source give for `O=C1NCN(c2ccccc2)C12CCN(C1CCOCC1(O)c1ccccc1)CC2` (racemic) [Example 100, (rac,cis)-8-(3-Hydroxy-3-phenyl-tetrahydro-pyran-4-yl)-1-phenyl-1,3,8-triaza-spiro[4.5]decan-4-one] here?
The IC50 was 90 nM.

For `O=C1NCN(c2ccccc2)C12CCN(C1CCCCC1(O)c1ccc(Cl)cc1)CC2` (racemic) [Example 78, (rac,cis)-8-[2-(4-Chloro-phenyl)-2-hydroxy-cyclohexyl]-1-phenyl-1,3,8-triaza-spiro[4.5]decan-4-one], which IC50 is on record?
Its IC50 is 86 nM.

With `O=C1NCN(c2ccccc2)C12CCN(C1CCCCC1(O)c1ccncc1)CC2` (racemic) [Example 77, (rac,cis) 8-(2-Hydroxy-2-pyridin-4-yl-cyclohexyl)-1-phenyl-1,3,8-triaza-spiro[4.5]decan-4-one] as the compound, how does the IC50 read?
The IC50 was 62 nM.

For `COc1ccc(N2CNC(=O)C23CCN(C2CCCCC2(O)c2ccc(Cl)cc2)CC3)cc1` (racemic) [Example 92, (rac,cis)-8-[2-(4-Chloro-phenyl)-2-hydroxy-cyclohexyl]-1-(4-methoxy-phenyl)-1,3,8-triaza-spiro[4.5]decan-4-one], which IC50 is on record?
Its IC50 is 99 nM.

For `O=C1NCN(c2ccc(Cl)cc2)C12CCN(C1CCCCC1(O)c1ccc(F)cc1)CC2` (racemic) [Example 89, (rac,cis)-1-(4-Chloro-phenyl)-8-[2-(4-fluoro-phenyl)-2-hydroxy-cyclohexyl]-1,3,8-triaza-spiro[4.5]decan-4-one], which IC50 is on record?
The IC50 was 15 nM.

For `O=C1NCN(c2ccc(F)cc2)C12CCN([C@H]1CCCC[C@H]1c1ccc(Cl)cc1)CC2` (racemic) [Example 17, (rac,cis)-8-[2-(4-Chloro-phenyl)-cyclohexyl]-1-(4-fluoro-phenyl)-1,3,8-triaza-spiro[4.5]decan-4-one], which IC50 is on record?
Its IC50 is 74 nM.

For `O=C1NCN(c2ccc(F)cc2)C12CCN(C1CCCCC1(O)c1ccc(Cl)cc1)CC2` (racemic) [Example 88, (rac,cis)-8-[2-(4-Chloro-phenyl)-2-hydroxy-cyclohexyl]-1-(4-fluoro-phenyl)-1,3,8-triaza-spiro[4.5]decan-4-one], which IC50 is on record?
Its IC50 is 60 nM.

For `O=C1NCN(c2ccccc2)C12CCN(C1CCCCC1(O)c1ccc(F)cc1)CC2` (racemic) [Example 75, (rac,cis)-8-[2-(4-Fluoro-phenyl)-2-hydroxy-cyclohexyl]-1-phenyl-1,3,8-triaza-spiro[4.5]decan-4-one], which IC50 is on record?
Its IC50 is 41 nM.

For `CC(C)CCN1CNC(=O)C12CCN(C1CCCCC1c1ccccc1)CC2` (racemic) [Example 54, (rac,cis)-1-(3-Methyl-butyl)-8-(2-phenyl-cyclohexyl)-1,3,8-triaza-spiro[4.5]decan-4-one], which IC50 is on record?
Its IC50 is 52 nM.

Which IC50 does the source give for `O=C1NCN(c2ccc(F)cc2)C12CCN(C1CCCCC1(O)c1ccc(F)cc1)CC2` (racemic) [Example 87, (rac,cis)-1-(4-Fluoro-phenyl)-8-[2-(4-fluoro-phenyl)-2-hydroxy-cyclohexyl]-1,3,8-triaza-spiro[4.5]decan-4-one] here?
The IC50 was 24 nM.

For `O=C1NCN(c2ccccc2)C12CCN(C1COCCC1(O)c1ccccc1)CC2` (racemic) [Example 99, (rac,cis)-8-(4-Hydroxy-4-phenyl-tetrahydro-pyran-3-yl)-1-phenyl-1,3,8-triaza-spiro[4.5]decan-4-one], which IC50 is on record?
The IC50 was 58 nM.

Which IC50 does the source give for `Cc1ccccc1C1(O)CCCCC1N1CCC2(CC1)C(=O)NCN2c1ccccc1` (racemic) [Example 76, (rac,cis)-8-(2-Hydroxy-2-o-tolyl-cyclohexyl)-1-phenyl-1,3,8-triaza-spiro[4.5]decan-4-one] here?
The IC50 was 50 nM.

Which IC50 does the source give for `Cc1ccc(C2CCCCC2N2CCC3(CC2)C(=O)NCN3c2ccc(F)cc2)cc1` (racemic) [Example 22, (rac,cis)-1-(4-Fluoro-phenyl)-8-(2-p-tolyl-cyclohexyl)-1,3,8-triaza-spiro[4.5]decan-4-one] here?
Its IC50 is 29 nM.

For `O=C1NCN(c2ccc(Cl)c(Cl)c2)C12CCN(C1CCCCC1c1ccccc1)CC2` (racemic) [Example 59, (rac,cis)-1-(3,4-Dichloro-phenyl)-8-(2-phenyl-cyclohexyl)-1,3,8-triaza-spiro[4.5]decan-4-one], which IC50 is on record?
The IC50 was 32 nM.

For `O=C1NCN(c2ccc(F)cc2)C12CCN(C1CCCCC1c1ccc(F)cc1)CC2` (racemic) [Example 24, (rac,cis)-1-(4-Fluoro-phenyl)-8-[2-(4-fluoro-phenyl)-cyclohexyl]-1,3,8-triaza-spiro[4.5]decan-4-one], which IC50 is on record?
The IC50 was 67 nM.

same assay, conditions: Flp-in-CHO cells stably transfected with mGlyT-1b cDNA; [3H]-glycine 60 nM and 25 μM non-radioactive glycine; 20 min preincubation at 22° C.; read-out: IC50 at GlyT-1 (inhibition of glycine uptake)

For `Cc1ccc(N2CNC(=O)C23CCN(C2CCCCC2(O)c2ccc(F)cc2)CC3)cc1` (racemic) [Example 91, (rac,cis)-8-[2-(4-Fluoro-phenyl)-2-hydroxy-cyclohexyl]-1-p-tolyl-1,3,8-triaza-spiro[4.5]decan-4-one], which IC50 is on record?
The IC50 was 39 nM.
